From patent US9833497B2, “Human originated EGF domain proteins and use of the same” (CHENGDU SOURCEBIO LIMITED-LIABILITY COMPANY, priority 2013, dated 2017) come the findings set out here.

Holding throughout (format): cell-based
In one test the test system is E. coli DH5α. In words: Antibacterial activity: MIC and growth curve against E. coli DH5α in 96-well plate. The note with it: minimal inhibitory concentration against E. coli DH5α; 96-well plate, 5×10^5 CFU/mL, 37° C., judged after 8 h. The procedure, abridged: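 MIC taken as lowest protein level with no bacterial growth, tracked by A600 every 30 min during 37 °C, 175 rpm culture. Two-fold protein series 50-12.5 μg/mL final, triplicate wells, against 5×10^5 CFU/mL of LB-washed mid-log cells.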

The subject of a further test is E. coli BL21. In words: MIC against Gram-negative bacteria: E. coli BL21. The note with it: E. coli BL21, 10 h cultivation at 37° C.; for MIC (μg/mL) E. coli BL21: 5×10^5 CFU/mL. The procedure, abridged:
(§1)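 First, colonies from LB agar were grown in LB at 37° C, 185 rpm, to McFarland turbidity 0.5, then centrifuged and resuspended in fresh LB. Next, wells received 5×10^5 CFU/mL bacteria plus two-fold serially diluted EGF domain protein (triplicate). Finally, plates were shaken at 37° C and the no-growth concentration taken as MIC.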

The subject of the next test is Pseudomonas aeruginosa. In words: MIC against Gram-negative bacteria: Pseudomonas aeruginosa. The note with it: P. aeruginosa, 10 h cultivation at 37° C.; for MIC (μg/mL) P. aeruginosa: 5×10^5 CFU/mL. The method in brief: as §1
The subject of a further test is Klebsiella pneumonia. Briefly: MIC against Gram-negative bacteria: Klebsiella pneumonia. To be noted: K. pneumonia, 10 h cultivation at 37° C.; for MIC (μg/mL) K. pneumonia: 5×10^5 CFU/mL. The procedure, abridged: as §1
Another test has as its system Enterobacter cloacae. Briefly: MIC against Gram-negative bacteria: Enterobacter cloacae. To be noted: E. cloacae, 10 h cultivation at 37° C.; for MIC (μg/mL) E. cloacae: 5×10^5 CFU/mL. The method in brief:
as §1

The subject of another test is Aeromonas hydrophila. In words: MIC against Gram-negative bacteria: Aeromonas hydrophila. The note with it: A. hydrophila, 10 h cultivation at 37° C.; for MIC (μg/mL) A. hydrophila: 5×10^5 CFU/mL. The method in brief:
as §1

The test system of a further test is Citrobacter diversus. Briefly: MIC against Gram-negative bacteria: Citrobacter diversus. The note with it: C. diversus, 10 h cultivation at 37° C.; for MIC (μg/mL) C. diversus: 5×10^5 CFU/mL. The procedure, abridged: as §1
The subject of a further test is Moraxella catarrhalis. Briefly: MIC against Gram-negative bacteria: Moraxella catarrhalis. To be noted: M. catarrhalis, 10 h cultivation at 37° C.; for MIC (μg/mL) M. catarrhalis: 5×10^5 CFU/mL. The procedure, abridged: as §1
A further test concerns Proteus mirabilis. Briefly: MIC against Gram-negative bacteria: Proteus mirabilis. The note with it: P. mirabilis, 10 h cultivation at 37° C.; for MIC (μg/mL) P. mirabilis: 5×10^5 CFU/mL. The method in brief:
as §1

The subject of a further test is Proteus vulgaris. Briefly: MIC against Gram-negative bacteria: Proteus vulgaris. To be noted: P. vulgaris, 10 h cultivation at 37° C.; for MIC (μg/mL) P. vulgaris: 5×10^5 CFU/mL. The procedure, abridged:
as §1

A further test relates to Serratia marcescens. In words: MIC against Gram-negative bacteria: Serratia marcescens. The note with it: S. marcescens, 10 h cultivation at 37° C.; for MIC (μg/mL) S. marcescens: 5×10^5 CFU/mL. The method in brief:
as §1

In the case of “PRT882 (SAKQCDSYPCKNNAVCKDGWNRFICDCTGTGYWGRTCE; listed as Homo sapiens)”, the MIC in the test on E. coli DH5α was determined as 25 µg/mL. In addition, the “MIC (μg/mL) E. coli BL21” value in the test with E. coli BL21 came to 12.5 µg/mL. The “MIC (μg/mL) P. aeruginosa” value with Pseudomonas aeruginosa was 25 µg/mL. The “MIC (μg/mL) K. pneumonia” value with Klebsiella pneumonia worked out at 12.5 µg/mL. For the same substance, in the test on Enterobacter cloacae, the “MIC (μg/mL) E. cloacae” value was 25 µg/mL. Besides, the “MIC (μg/mL) A. hydrophila” value in the test on Aeromonas hydrophila worked out at 100 µg/mL. Also, in the test with Citrobacter diversus, the “MIC (μg/mL) C. diversus” value turned out to be 50 µg/mL. In the test with Moraxella catarrhalis, the “MIC (μg/mL) M. catarrhalis” value is 12.5 µg/mL. Besides, the “MIC (μg/mL) P. mirabilis” value against Proteus mirabilis worked out at 50 µg/mL. In the test with Proteus vulgaris, the “MIC (μg/mL) P. vulgaris” value amounted to 12.5 µg/mL. In the test on Serratia marcescens, the “MIC (μg/mL) S. marcescens” value amounted to 50 µg/mL.

Turning to “PRT774 (LTLRCDYYGCNQTADDCLNGLACDCKSDLQRPNPQSPFCV; listed as Homo sapiens)”, the minimum inhibitory concentration (MIC) with E. coli DH5α was determined as 50 µg/mL. In addition, the “MIC (μg/mL) E. coli BL21” value with E. coli BL21 was 12.5 µg/mL. Also, in the test on Pseudomonas aeruginosa, the “MIC (μg/mL) P. aeruginosa” value worked out at 12.5 µg/mL. In addition, the “MIC (μg/mL) K. pneumonia” value in the test on Klebsiella pneumonia stood at 25 µg/mL. Moreover, the “MIC (μg/mL) E. cloacae” value in the test on Enterobacter cloacae was 12.5 µg/mL. The “MIC (μg/mL) A. hydrophila” value in the test on Aeromonas hydrophila came out at 25 µg/mL. Besides, the “MIC (μg/mL) C. diversus” value in the test with Citrobacter diversus was 12.5 µg/mL. In addition, the “MIC (μg/mL) M. catarrhalis” value against Moraxella catarrhalis amounted to 12.5 µg/mL. In addition, in the test with Proteus mirabilis, the “MIC (μg/mL) P. mirabilis” value worked out at 12.5 µg/mL. In the test on Proteus vulgaris, the “MIC (μg/mL) P. vulgaris” value stood at 12.5 µg/mL. For the same substance, the “MIC (μg/mL) S. marcescens” value with Serratia marcescens turned out to be 50 µg/mL.

As to “PRT975 (LVDWCSRQPCQNGGRCVQTGAYCLCPPGWSGRLCD; listed as Homo sapiens)”, the MIC came to 25 µg/mL against E. coli DH5α; 12.5 µg/mL against E. coli BL21; 50 µg/mL in the test on Pseudomonas aeruginosa; 12.5 µg/mL against Klebsiella pneumonia; 25 µg/mL in the test on Enterobacter cloacae; 50 µg/mL in the test with Aeromonas hydrophila. The MIC against Citrobacter diversus was 12.5 µg/mL; against Moraxella catarrhalis, 12.5 µg/mL; against Proteus mirabilis, 50 µg/mL; against Proteus vulgaris, 12.5 µg/mL; with Serratia marcescens it was 25 µg/mL.

Turning to “PRT910 (EIDECLSHPCQNGGTCLDLPNTYKCSCPRGTQGVHCE; listed as Homo sapiens)”, the minimal inhibitory concentration (MIC) was found to be 50 µg/mL in the test on E. coli DH5α; 25 µg/mL against E. coli BL21; 12.5 µg/mL against Pseudomonas aeruginosa; 25 µg/mL in the test with Klebsiella pneumonia; 50 µg/mL with Enterobacter cloacae; 12.5 µg/mL in the test with Aeromonas hydrophila. The MIC against Citrobacter diversus stood at 25 µg/mL; against Moraxella catarrhalis it was 12.5 µg/mL; in the test on Proteus mirabilis, 25 µg/mL; in the test with Proteus vulgaris, 25 µg/mL; against Serratia marcescens, 25 µg/mL.

On to “PRT238 (DICDPNPCENGGICLPGLADGSFSCECPDGFTDPNCS; listed as Homo sapiens)”, for which the MIC against E. coli DH5α worked out at 25 µg/mL. Further, the “MIC (μg/mL) E. coli BL21” value against E. coli BL21 came to 12.5 µg/mL. The “MIC (μg/mL) P. aeruginosa” value against Pseudomonas aeruginosa is 25 µg/mL. Besides, in the test with Klebsiella pneumonia, the “MIC (μg/mL) K. pneumonia” value came to 50 µg/mL. In addition, the “MIC (μg/mL) E. cloacae” value with Enterobacter cloacae was 25 µg/mL. The “MIC (μg/mL) A. hydrophila” value in the test with Aeromonas hydrophila worked out at 12.5 µg/mL. Also, the “MIC (μg/mL) C. diversus” value with Citrobacter diversus worked out at 25 µg/mL. The “MIC (μg/mL) M. catarrhalis” value in the test on Moraxella catarrhalis worked out at 12.5 µg/mL. Also, in the test on Proteus mirabilis, the “MIC (μg/mL) P. mirabilis” value amounted to 12.5 µg/mL. In addition, the “MIC (μg/mL) P. vulgaris” value against Proteus vulgaris came to 25 µg/mL. Further, in the test on Serratia marcescens, the “MIC (μg/mL) S. marcescens” value was determined as 12.5 µg/mL.

One may read the MIC as the lowest concentration that inhibits growth of the organism.
